From PubChem BioAssay (NCI) come the findings set out here.

Test systems include UACC-257 melanoma; MOLT-4 leukemia; RPMI-8226 leukemia; SN12C renal; HCT-15 colon; UO-31 renal; RXF 393 renal; SW-620 colon; SK-MEL-2 melanoma; SK-MEL-28 melanoma.
Common to all, as to assay: inhibition of tumour cell growth, NCI panel, 48 h

Each structure is given as a SMILES string.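 Following 48 hours of exposure in 96-well plates, responses at five concentrations were used to interpolate endpoints linearly. At the GI50, growth is halved. TGI: total growth inhibition.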

Turning to `O=C(Nc1cccc(Nc2ncc(Br)c(NCCc3cnc[nH]3)n2)c1)N1CCCC1`, the GI50 in the experiment with UACC-257 melanoma is 12 µM; in the experiment on MOLT-4 leukemia it was 2.41 µM; in the experiment with RPMI-8226 leukemia it was 3.9 µM; with SN12C renal, 2.88 µM; with HCT-15 colon, 21.7 µM; in the experiment on UO-31 renal, 13.4 µM. In addition, the GI50 in the experiment with RXF 393 renal is 1.61 µM; in the experiment on SW-620 colon it was 1.27 µM; with SK-MEL-2 melanoma, 5.31 µM; with SK-MEL-28 melanoma, 8.6 µM. Also, the TGI is 37.5 µM in the experiment on UACC-257 melanoma; 24.8 µM with MOLT-4 leukemia; 19.5 µM in the experiment on RPMI-8226 leukemia; 33.6 µM in the experiment on SN12C renal; over 67 µM in the experiment on HCT-15 colon; 45.8 µM in the experiment with UO-31 renal. The TGI in the experiment with RXF 393 renal is 9.06 µM; in the experiment on SW-620 colon, 11.4 µM; in the experiment with SK-MEL-2 melanoma, 19.4 µM; in the experiment on SK-MEL-28 melanoma, 28.6 µM.

Regarding `COc1cc2nc(NCCCCCNC(=O)c3ccco3)nc(N)c2cc1OC`, the TGI in the experiment on UACC-257 melanoma was 38.1 µM; in the experiment on MOLT-4 leukemia, 67.8 µM; with RPMI-8226 leukemia, over 100 µM; in the experiment with SN12C renal, over 100 µM; in the experiment with HCT-15 colon, over 100 µM; in the experiment on UO-31 renal it was over 100 µM. The TGI in the experiment with RXF 393 renal worked out at 83.5 µM; in the experiment with SW-620 colon, 58.1 µM; in the experiment on SK-MEL-2 melanoma, 36.5 µM; with SK-MEL-28 melanoma, 36.2 µM.

As to `CC(C)(C)c1ccc(C(=O)Nc2sc3c(c2C(N)=O)CCC(=O)C3)cc1`, the GI50 in the experiment on UACC-257 melanoma is 1.72 µM; in the experiment with MOLT-4 leukemia it was 0.705 µM; with RPMI-8226 leukemia, 0.158 µM; in the experiment with SN12C renal, 0.654 µM; with HCT-15 colon it was 0.408 µM; with UO-31 renal it was 0.425 µM. The GI50 was 0.426 µM in the experiment on RXF 393 renal, 0.187 µM with SW-620 colon, 1.9 µM with SK-MEL-2 melanoma and 1.13 µM in the experiment with SK-MEL-28 melanoma. Moreover, the TGI in the experiment on UACC-257 melanoma was determined as 4.19 µM; in the experiment on MOLT-4 leukemia, 3.45 µM; in the experiment on RPMI-8226 leukemia, 0.581 µM; in the experiment on SN12C renal, 2.05 µM; in the experiment with HCT-15 colon, 2.38 µM; with UO-31 renal it was 1.46 µM. Moreover, the TGI with RXF 393 renal was determined as 1.94 µM; with SW-620 colon, 1.28 µM; in the experiment with SK-MEL-2 melanoma it was 4.73 µM; in the experiment on SK-MEL-28 melanoma, 2.77 µM.

Consider `CC1(C)CCC[C@]2(C)[C@@H](C=O)C(C=O)=CC[C@@H]12`, for which the TGI in the experiment on UACC-257 melanoma amounted to 31.5 µM; in the experiment on MOLT-4 leukemia, 30.5 µM; in the experiment on RPMI-8226 leukemia, 31.4 µM; in the experiment with SN12C renal it was 39.9 µM; with HCT-15 colon, 30.7 µM; with UO-31 renal, 29.9 µM. Moreover, the TGI is 34.6 µM in the experiment on RXF 393 renal, over 100 µM with SW-620 colon, 39.7 µM with SK-MEL-2 melanoma and over 100 µM in the experiment on SK-MEL-28 melanoma.

Regarding `COC(CN1C=C(Sc2ccccc2)CC1)OC`, the TGI with UACC-257 melanoma was 98.1 µM; in the experiment on MOLT-4 leukemia, 80.3 µM; with RPMI-8226 leukemia it was 50.7 µM; in the experiment with SN12C renal, over 100 µM; in the experiment with HCT-15 colon, over 100 µM; in the experiment with UO-31 renal, over 100 µM. Further, the TGI in the experiment on RXF 393 renal is 66.6 µM; in the experiment with SW-620 colon, 47.9 µM; in the experiment with SK-MEL-2 melanoma, 44.8 µM; in the experiment with SK-MEL-28 melanoma, over 100 µM.

Consider `CC1(C)N=C(N)N=C(N)N1c1ccc(CCCCc2ccc(S(=O)(=O)F)cc2)c(Cl)c1`, for which the GI50 in the experiment with UACC-257 melanoma is 0.929 µM; in the experiment with MOLT-4 leukemia, 0.518 µM; with RPMI-8226 leukemia, 0.283 µM; in the experiment on SN12C renal, 0.189 µM; in the experiment with HCT-15 colon, 0.593 µM; in the experiment with UO-31 renal it was 9.59 µM. Besides, the GI50 with RXF 393 renal was 0.0862 µM; in the experiment on SW-620 colon it was 0.0527 µM; in the experiment with SK-MEL-2 melanoma it was 2.48 µM; with SK-MEL-28 melanoma it was 0.85 µM. The TGI in the experiment with UACC-257 melanoma is 19.1 µM; in the experiment with MOLT-4 leukemia, 21.4 µM; in the experiment on RPMI-8226 leukemia, 13 µM; in the experiment on SN12C renal, 16.2 µM; in the experiment on HCT-15 colon, over 100 µM; with UO-31 renal, over 100 µM. The TGI in the experiment with RXF 393 renal was over 61.2 µM; in the experiment with SW-620 colon it was 14.7 µM; with SK-MEL-2 melanoma, 20.7 µM; in the experiment with SK-MEL-28 melanoma, 20.8 µM.

For the compound `CN(C)CCC(/C=C/c1ccccc1)=N\Nc1ccc(Cl)cc1Cl`, the TGI with UACC-257 melanoma stood at 27 µM; with MOLT-4 leukemia, 25.9 µM; in the experiment with RPMI-8226 leukemia, 30.1 µM; in the experiment with SN12C renal, 23.2 µM; with HCT-15 colon, 24.2 µM; in the experiment with UO-31 renal, 6.5 µM. Also, the TGI came out at 21 µM with RXF 393 renal, 27.9 µM in the experiment with SW-620 colon, 26.7 µM in the experiment on SK-MEL-2 melanoma and 27.3 µM with SK-MEL-28 melanoma.

With `CN1CCN(Cc2ccc(NC(=O)c3[nH]ncc3Nc3ncnc4sc5c(c34)CCCC5)cc2)CC1`, the GI50 in the experiment with UACC-257 melanoma is 1.21 µM; in the experiment with MOLT-4 leukemia it was 0.108 µM; in the experiment on RPMI-8226 leukemia it was 0.37 µM; in the experiment with SN12C renal it was 0.0425 µM; in the experiment on HCT-15 colon, 0.197 µM; in the experiment on UO-31 renal it was 0.356 µM. In addition, the GI50 in the experiment on RXF 393 renal was 0.229 µM; with SW-620 colon, 0.194 µM; in the experiment with SK-MEL-2 melanoma, 0.665 µM; in the experiment with SK-MEL-28 melanoma it was 0.512 µM. Further, the TGI in the experiment with UACC-257 melanoma was found to be 3.29 µM; in the experiment with MOLT-4 leukemia, 0.503 µM; in the experiment with RPMI-8226 leukemia, 1.04 µM; in the experiment on SN12C renal it was 1.22 µM; in the experiment with HCT-15 colon, 1.28 µM; in the experiment on UO-31 renal, 1.75 µM. For the same compound, the TGI in the experiment with RXF 393 renal was determined as 0.949 µM; with SW-620 colon, 1.05 µM; in the experiment with SK-MEL-2 melanoma, 3.22 µM; in the experiment with SK-MEL-28 melanoma, 2.08 µM.

As for `C[C@@H]1O[C@@H](OC[C@H]2O[C@@H](OCCc3ccc(O)c(O)c3)[C@H](O)[C@@H](O)[C@@H]2OC(=O)/C=C/c2ccc(O)c(O)c2)[C@H](O)[C@H](O)[C@H]1O`, the GI50 is over 100 µM in the experiment on UACC-257 melanoma; over 100 µM with MOLT-4 leukemia; 12.2 µM in the experiment with RPMI-8226 leukemia; over 100 µM in the experiment on SN12C renal; over 100 µM in the experiment with HCT-15 colon; over 100 µM in the experiment on UO-31 renal. The GI50 in the experiment with RXF 393 renal, in the experiment on SW-620 colon, in the experiment on SK-MEL-2 melanoma and with SK-MEL-28 melanoma was over 100 µM in each case. The TGI in the experiment with UACC-257 melanoma is over 100 µM; in the experiment with MOLT-4 leukemia it was over 100 µM; in the experiment on RPMI-8226 leukemia, 50.9 µM; in the experiment on SN12C renal, over 100 µM; in the experiment with HCT-15 colon it was over 100 µM; in the experiment with UO-31 renal, over 100 µM. Moreover, the TGI with RXF 393 renal, in the experiment on SW-620 colon, in the experiment with SK-MEL-2 melanoma and in the experiment with SK-MEL-28 melanoma was over 100 µM throughout.
